US11148991B2, “5-bromo-2-(alpha-hydroxypentyl)benzoic acid sodium salts in different crystal forms, and preparation method thereof” (priority 2013, dated 2021)

Tested on: rat MCAO model
Assay: Brain infarction volume and brain edema volume in rats with local brain ischemia (MCAO model)
Assay type: in vivo, Wistar rats
Details: sodium salt
Excerpt: Wistar rats (50% of rats is female and another 50% of rats is male); 5-bromo-2-(α-hydroxypentyl)benzoic acid sodium salt (BZP, in the form of amorphous form, crystal form A and crystal form B, prepared according to the present invention), prepared in double distilled water; […] is in the form of white powder, manufactured by Beijing Chemical Works.
Administration method: 5-bromo-2-(α-hydroxypentyl)benzoic acid sodium salt (BZP) was intravenously injected at one hour before MCAO, with the dosage of 12 mg/kg; 5-bromo-2-(α-hydroxypentyl)benzoic acid sodium salt (BZP) was used to intragastric administration at one hour before MCAO, with the dosage of 20 mg/kg. 2-(α-hydroxypentyl)benzoic acid potassium salt (NBP-K) was used as positive control, and its dosage (calculated in moles) is the same as that of 5-bromo-2-(α-hydroxypentyl)benzoic acid sodium salt, that is, the dosage of intravenous injection is 9.6 mg/kg, and the dosage of intragastric administration is 15.9 mg/kg.
Preparation of MCAO model: Establish a focal brain ischemia-reperfusion injury model by cerebral artery obstruction in rats with suture-occluded method. Rats were intraperitoneally injected with 10% chloral hydrate to anesthetize. Rats were fixed on back and the skin of neck center was incised. The left common carotid artery, external carotid artery, and internal carotid artery were subjected to blunt dissection. The pterygopalatine artery was ligated, only remaining cranial trunk of internal carotid artery; a prepared nylon rope (burning diameter 0.3 mm) was inserted via external carotid artery incision into the bifurcation of the […], and was pushed along the cranial direction of the internal carotid artery. […] This indicates one side of the middle cerebral artery occlusion model was completed. Sutured the incision, remained the end of nylon line out of the skin. For reperfusion, the nylon line was gently pulled out. If feel force of resistance, this indicates the end of nylon line has returned to the trunk of external carotid artery, thereby accomplishing reperfusion.
Determination of infarction volume: After being subjected to ischemia for 2 hours and reperfusion for 24 hours, the heads of rats were cut off. Forebrain was removed and cut into six pieces, each piece being 2 mm. The pieces were stained with TC, and incubated at 37° C. for 30 minutes. Normal issues were stained to be red, but the infarcted issues were stained to be white. Took photos with digital camera, and calculated the percentage of the infarcted area relative to the spherical area of brain by Photoshop.

[1] = intragastric administration one hour before MCAO, BZP 20 mg/kg, NBP-K 15.9 mg/kg
[2] = intravenous injection one hour before MCAO, 12 mg/kg, 12 mg/kg

In the case of `CCCCC(O)c1ccc(Br)cc1C(=O)[O-].[Na+]` (stereo not drawn) [BZP (amorphous form), 5-bromo-2-(α-hydroxypentyl)benzoic acid sodium salt], the “Edema (%)” value [1] is reported as 2.24 ± 1.66^aa** %, the “Infarction volume (%)” value [1] is reported as 5.59 ± 2.35 aa % and the “Inhibition of edema (%)” value [1] is reported as 88.36%. For the same compound, the “Inhibition of infarction volume (%)” value [1] was 89.05%, the “Edema (%)” value [2] was 2.56 ± 1.63 aa % and the “Inhibition of edema (%)” value [2] was 88.58%. The “Infarction volume (%)” value (intravenous injection one hour before MCAO, BZP 12 mg/kg, NBP-K 9.6 mg/kg, ischemia 2 hours, reperfusion 24 hours) was 3.46 ± 2.94 aa % and the “Inhibition of infarction volume (%)” value (intravenous injection one hour before MCAO, BZP 12 mg/kg, NBP-K 9.6 mg/kg) was 93.52%.
